Where a SMILES comes first, the peptide text is derived from it. The star is where a group is joined. Cbz = O=C(OCc1ccccc1)*; OtBu = CC(C)(C)O*
Columns and labels:
U266BL cells = test: Viability of myeloma cells by trypan blue dye-exclusion assay (U266BL); assay type: cell-based, human; conditions: 24 hours
Protocol: (§1) In another experiment, the direct effect of the proteasomal inhibitor PSI and other NF-kB inhibitors on the viability in human myeloma cells and 5TGM-1 cells in vitro was evaluated.
(§2) 1×10^6 human myeloma (IM9 and U266BL) cells or 5TGM-1 cells were plated out in the presence and/or absence of PSI and other NF-κB inhibitors. After 24 hours, the viability of the myeloma cells was assessed by the trypan blue dye-exclusion assay. These compounds, at low (submicromolar) concentrations, markedly decrease the viability of both human and murine myeloma cells in culture.

human myeloma IM-9 cells = test: Viability of myeloma cells by trypan blue dye-exclusion assay (IM-9); assay type: cell-based; conditions: 24 hours
Protocol: as §1, §2

[1] = system: 5TGM-1 cultured myeloma cells; test: Hind-limb paralysis after intravenous 5TGM-1 myeloma cell inoculation; assay type: in vivo, C57BL/KaLwRij mice; conditions: PSI 5 mg/kg/day subcutaneously for 28 days; untreated mice all paralysed by at least day 27
Protocol: Ten (10) C57BL/KaLwRij mice were inoculated intravenously with 1×10^6 5TGM-1 cultured myeloma cells. When untreated, the mice invariably develop hind-limb paralysis after 26-30 days.
One group of five (5) mice were injected with PSI (5 mg/kg/day) subcutaneously over their flank portion for 28 days and the other group received only vehicle. […] All of the untreated mice had developed hind-limb paralysis by at least day 27. In contrast, none of the PSI-treated group developed paraplegia before at least day 33.

5TGM-1 cells = test: Serum tumor marker IgG2b in mice inoculated intravenously with 5TGM-1 cells; assay type: in vivo, C57BL/KwLaRij mice; conditions: PSI 5 mg/kg/day subcutaneously; sera on days 0, 7, 14 and 18
Protocol: Eight (8) C57BL/KwLaRij mice were each injected with 1×10^6 5TGM-1 cells through the tail vein. They were then randomized into two groups, one group dosed with PSI (5 mg/kg/day subcutaneously) and the other group (untreated control) received only vehicle. Sera were obtained at the start (day 0) and on days 7, 14 and 18 followed by assay for IgG2b.

5TGM1 cells = test: Viability of myeloma cells by trypan blue dye-exclusion assay (5TGM-1); assay type: cell-based, murine; conditions: 100 nM, 24 hours
Protocol: as §1, §2

[2] = system: 5TGM-1 cultured myeloma cells; test: PSI injected into subcutaneous 5TGM-1 myeloma tumors in mice; assay type: in vivo, C57BL/KaLwRij mice
Protocol: Nine (9) C57BL/KaLwRij mice were inoculated with 0.5×10^6 5TGM-1 cultured myeloma cells which were injected subcutaneously over the flank.
One group had PSI injected directly into the tumors (˜5 mg/kg/day) and the other group had only vehicle injected into the tumors.

[3] = relative to MG-132, MG-115 and MG-341

SMILES: S=C(S)N1CCCC1 [PDTC, 1-pyrrolidine carbothiotic acid]
- viability (U266BL cells; 0.1 μM): less than 40%

SMILES: O=C(NC1=CC(=O)c2ccccc2C1=O)c1ccccc1 [PPM-18]
- effect on viability (human myeloma IM-9 cells; concentration not given): relatively ineffective
- effect on viability as compared to control (U266BL cells; concentration not given): does not appear to affect viability appreciatively

SMILES: CC[C@H](C)[C@H](NC(=O)OCc1ccccc1)C(=O)N[C@@H](CCC(=O)OC(C)(C)C)C(=O)N[C@@H](C)C(=O)N[C@H](C=O)CC(C)C [PSI, N-carbobenzoyl-Ile-Glu-(OtBu)-Ala-Leu-CHO] (Cbz-IE(OtBu)AL-aldehyde)
- viability (human myeloma IM-9 cells; 0.01 μM): marked diminution in viability
- time at which hind-limb paralysis (paraplegia) developed [1]: ≥ 33 days
- tumor marker IgG2b in sera (5TGM-1 cells): markedly reduced
- viability (U266BL cells; 0.01 μM): less than 20%
- viability (5TGM1 cells): ~0%
- survival and signs of tumor ([2]; 4 months after treatment, PSI ~5 mg/kg/day intratumoral): alive and well with no signs of tumor
- size of the tumors ([2]; PSI ~5 mg/kg/day injected directly into subcutaneous tumors, treatment commenced on day 35): decreased markedly
- health of treated mice ([2]; up until 3 months after tumor inoculation, even though treatment was discontinued, PSI ~5 mg/kg/day intratumoral): remained healthy

SMILES: C=C(C)[C@]12C[C@@H](C)[C@@]34O[C@](Cc5ccccc5)(O[C@@H]1[C@@H]3C=C(COC(=O)Cc1ccc(O)c(OC)c1)C[C@]1(O)C(=O)C(C)=C[C@@H]41)O2 [resiniferatoxin]
- activity in the ABA assay [3]: less active

From patent publication US6492333B1, “Treatment of myeloma bone disease with proteasomal and NF-κB activity inhibitors” (Osteoscreen, Inc., priority 1999, dated 2002)
